Active and inactive are the calls of the source. The rule behind the calls is not given here.
Tests used:
[1] = target: von Hippel-Lindau disease tumor suppressor/Bromodomain-containing protein 4 (Homo sapiens) (UniProt O60885+P40337); experiment: Protac activity at VHL/BRD4 in human MCF7 cells assessed as induction of BRD4 degradation at 10 uM measured after 24 hrs by Western blotting analysis; type: cell-based
[2] = target: E3 ubiquitin-protein ligase XIAP/Bromodomain-containing protein 4 (Homo sapiens) (UniProt P98170+O60885); experiment: Protac activity at IAP/BRD4 in human SK-MEL-28 cells assessed as induction of BRD4 degradation at 0.1 to 10 uM measured after 24 hrs by Western blotting analysis; type: cell-based; conditions: dose 0.1-10 µM
Chain of E3 ubiquitin-protein ligase XIAP/Bromodomain-containing protein 4 (Homo sapiens) (P98170 whole entry, looked up, other chains not shown): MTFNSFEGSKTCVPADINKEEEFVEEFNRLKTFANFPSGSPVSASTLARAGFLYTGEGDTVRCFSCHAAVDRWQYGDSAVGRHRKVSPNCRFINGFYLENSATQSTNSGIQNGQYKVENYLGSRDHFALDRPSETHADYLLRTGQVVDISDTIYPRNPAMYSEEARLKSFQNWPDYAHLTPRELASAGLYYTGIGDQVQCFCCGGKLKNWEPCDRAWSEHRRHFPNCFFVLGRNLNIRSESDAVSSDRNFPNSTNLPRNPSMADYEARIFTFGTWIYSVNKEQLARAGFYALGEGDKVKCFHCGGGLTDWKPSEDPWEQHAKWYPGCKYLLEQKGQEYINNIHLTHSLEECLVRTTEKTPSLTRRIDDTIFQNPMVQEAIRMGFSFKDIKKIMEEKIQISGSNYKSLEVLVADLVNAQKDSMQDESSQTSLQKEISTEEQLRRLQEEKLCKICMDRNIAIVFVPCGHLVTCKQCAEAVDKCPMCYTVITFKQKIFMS

Chain of von Hippel-Lindau disease tumor suppressor/Bromodomain-containing protein 4 (Homo sapiens) (P40337 whole entry, looked up, other chains not shown): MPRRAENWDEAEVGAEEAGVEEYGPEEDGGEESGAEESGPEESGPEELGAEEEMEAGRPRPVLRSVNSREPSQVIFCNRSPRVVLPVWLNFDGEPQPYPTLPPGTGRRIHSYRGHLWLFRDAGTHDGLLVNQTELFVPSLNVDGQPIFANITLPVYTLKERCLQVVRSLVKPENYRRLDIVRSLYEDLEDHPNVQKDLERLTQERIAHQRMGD

Activity [1] | Activity [2] | Compound
Active | – | CC1=C(C)C2C(c3ccc(Cl)cc3)=N[C@@H](CC(=O)NCCCNC(=O)CCCC(=O)N[C@H](C(=O)N3C[C@H](O)C[C@H]3C(=O)NCc3ccc(-c4scnc4C)cc3)C(C)(C)C)c3nnc(C)n3C2S1 (some centres undefined)
– | Active | CN[C@@H](C)C(=O)N[C@H](C(=O)N1CCC[C@H]1c1nc(C(=O)c2cccc(OCC(=O)NCCOCCOCCOCCNC(=O)C[C@@H]3N=C(c4ccc(Cl)cc4)c4c(sc(C)c4C)-n4c(C)nnc43)c2)cs1)C1CCCCC1
– | Active | CN[C@@H](C)C(=O)N[C@H](C(=O)N1CCC[C@H]1c1nc(C(=O)c2cccc(OCC(=O)NCCCNC(=O)C[C@@H]3N=C(c4ccc(Cl)cc4)c4c(sc(C)c4C)-n4c(C)nnc43)c2)cs1)C1CCCCC1
inactive | – | CC1=C(C)C2C(c3ccc(Cl)cc3)=N[C@@H](CC(=O)NCCOCCOCCNC(=O)CCCC(=O)N[C@H](C(=O)N3C[C@H](O)C[C@H]3C(=O)NCc3ccc(-c4scnc4C)cc3)C(C)(C)C)c3nnc(C)n3C2S1 (some centres undefined)
